The values below come from US10544090B2, “Anthraquinone analogs and methods of making and using thereof” (Georgia State University Research Foundation, Inc., priority 2012, dated 2020).

SMILES strings stand for the structures.

The subject of data set [1] is HeLa. As to the kind of experiment: MTT cytotoxicity evaluation of series 1 and 2 rhein analogues, HeLa (Tables 3, 4). In kind it is cell-based. Particulars: for potency in HeLa cells compared with rhein: in words.
For data set [2], the system named is MOLT4. The experiment in a line: MTT cytotoxicity evaluation of series 1 and 2 rhein analogues, MOLT4 (Tables 3, 4). Particulars: for cytotoxicity against MOLT4 compared with rhein: in words.
A further data set has as its system K562. The experiment in a line: Cytotoxicity against cancer cell lines (Example 5), K562. In kind it is cell-based. The settings on record: Tables 5-12. As for the experimental part: (§1) All of the compounds synthesized were tested against a number of cancer cell lines: Hela KB, Cos7, Molt4, K562, EU1, and T98G. The cancer cell lines vary from leukemia cell lines (Molt4, EU, K562) to solid-state tumor cell lines (Hela, KB, Cos7) and the drug resistant cell lines (T98G).

The subject of the next data set is T98G. The experiment in a line: Cytotoxicity against cancer cell lines (Example 5), T98G. In kind it is cell-based. The settings on record: Tables 5-12; drug resistant cell line. The protocol: as §1
For another data set, the system named is Cos7. As to the kind of experiment: Cytotoxicity against cancer cell lines (Example 5), Cos7. Format: cell-based. The settings on record: Tables 5-12. As for the experimental part: as §1
In a further data set the test system is KB. As to the kind of experiment: Cytotoxicity against cancer cell lines (Example 5), KB. Particulars: Tables 5-12. In kind it is cell-based. The protocol: as §1
The next data set relates to EU1. As to the kind of experiment: Cytotoxicity against cancer cell lines (Example 5), EU1. The settings on record: Tables 5-12. In kind it is cell-based. The protocol:
as §1

In data set [3] the test system is MOLT4. As to the kind of experiment: Cytotoxicity against cancer cell lines (Example 5), Molt4. In kind it is cell-based. The protocol: as §1
Data set [4] relates to HeLa. As to the kind of experiment: Cytotoxicity against cancer cell lines (Example 5), Hela. In kind it is cell-based. The settings on record: Tables 5-12. The protocol:
as §1

Where [5] appears, read: MTT, Tables 3 and 4, read-out: IC50 (μM) against HeLa.
The mark [6] stands for this setting: read-out: IC50 (μM) against MOLT4, MTT, Tables 3 and 4.
Where [7] appears, read: Homo sapiens, HeLa, MTT, Tables 3 and 4, read-out: IC50 (μM) against HeLa.
The mark [8] stands for this setting: Homo sapiens, MOLT-4, read-out: IC50 (μM) against MOLT4.
Setting [9] is: Tables 5-12, read-out: IC50 Molt4.

Regarding `O=C1c2cccc(O)c2C(=O)c2c(O)cc(-c3cccs3)cc21` [Compound 26b, 1,8-Dihydroxy-3-(thiophen-2′-yl)-anthraquinone], the IC50 in the data set with HeLa [1] (setting [5]) and in the data set on MOLT4 [2] (setting [6]) was > 100 µM each time. Besides, in the data set with MOLT4 [2], the “cytotoxicity against MOLT4 compared with rhein” value was “decreased cytotoxicity”.

On to `Cc1noc(C)c1-c1cc(O)c2c(c1)C(=O)c1cccc(O)c1C2=O` [Compound 26a, 1,8-Dihydroxy-3-(3′,5′-dimethyl-isoxazol-4′-yl)-anthraquinone], for which the IC50 is 16 µM in the data set on HeLa [1] (setting [5]) and 14 µM in the data set with MOLT4 [2] (setting [6]). The “potency in HeLa cells compared with rhein” value in the data set on HeLa [1] was “moderate improvement in potency”.

As for `CC(C)(C)OCc1ccc(-c2cc(O)c3c(c2)C(=O)c2cccc(O)c2C3=O)cc1` [Compound 26e, 1,8-Dihydroxy-3-(4′-t-butoxymethyl-phenyl)-anthraquinone], the IC50 in the data set on HeLa [1] (setting [7]) was > 100 µM; in the data set with MOLT4 [2] (setting [8]) it was 22 µM.

For the molecule `O=C(CN1CCCCC1)Nc1cc(O)c2c(c1)C(=O)c1cccc(O)c1C2=O` [Compound 9d, 1,8-Dihydroxy-3-(2′-piperidinyl-acetamido)-anthraquinone], the results for the IC50 with HeLa [1] (setting [7]) and with MOLT4 [2] (setting [8]) were 33 µM and 4.1 µM, respectively.

Consider `Cc1cc(-c2cc(O)c3c(c2)C(=O)c2cccc(O)c2C3=O)ccc1N(C)C` [Compound 26c, 1,8-Dihydroxy-3-(4′-dimethylamino-3′-methylphenyl)-anthraquinone], for which the IC50 in the data set with HeLa [1] (setting [7]) is 68 µM; in the data set with MOLT4 [2] (setting [8]) it was > 100 µM. Further, in the data set with HeLa [1], the “potency in HeLa cells compared with rhein” value is “moderate improvement in potency”. Also, the “cytotoxicity against MOLT4 compared with rhein” value with MOLT4 [2] is “decreased cytotoxicity”.

As to `C=CCOc1cccc2c1C(=O)c1c(OCC=C)cc(NC(=O)CCl)cc1C2=O` [BW-AQ-161], the 50% inhibitory concentration (IC50) with K562 was > 10 µM; in the data set on T98G, > 50 µM; with Cos7, > 20 µM; in the data set on KB, > 20 µM; with EU1 it was > 10 µM; with MOLT4 [3] (setting [9]), > 10 µM. Also, in the data set on HeLa [4], the IC50 is > 20 µM.

For the molecule `COc1ccc(-c2cc(O)c3c(c2)C(=O)c2cccc(O)c2C3=O)cc1` [Compound 26f, 1,8-Dihydroxy-3-(4′-methoxyphenyl)-anthraquinone], the IC50 in the data set on HeLa [1] (setting [7]) was > 100 µM; with HeLa [1] (Homo sapiens, HeLa, less than 50% cells killed at highest concentration, R^2 < 0.8, read-out: IC50 (μM) against HeLa, value inside parenthesis calculated by Prism 4 using sigmoidal curve fitting), 20 µM; with MOLT4 [2] (setting [8]) it was 29 µM.

Consider `CCN(CC)CC(=O)Nc1cc(O)c2c(c1)C(=O)c1cccc(O)c1C2=O` [Compound 9a, 1,8-Dihydroxy-3-(2′-diethylamino-acetamido)-anthraquinone], for which the IC50 is 6.1 µM in the data set on HeLa [1] (setting [7]) and 3 µM in the data set on MOLT4 [2] (setting [8]).

`C=CCOc1cccc2c1C(=O)c1c(OCC=C)cc(NC(=O)CN=[N+]=[N-])cc1C2=O` [BW-AQ-164]: the half-maximal inhibitory concentration (IC50) was > 25 µM with K562; > 50 µM in the data set with T98G; > 50 µM with Cos7; > 50 µM in the data set on KB; > 25 µM in the data set with EU1; > 25 µM with MOLT4 [3] (setting [9]). For the same molecule, the IC50 with HeLa [4] was > 50 µM.

On to `C=CCOC(=O)c1cc(OCC=C)c2c(c1)C(=O)c1cccc(OCC=C)c1C2=O` [BW-AQ-152], for which the IC50 in the data set with K562 was > 25 µM; in the data set on T98G, 29.3 µM; with Cos7, 12.5 µM; in the data set with KB, 22.5 µM; in the data set with EU1, > 25 µM; in the data set on MOLT4 [3] (setting [9]), > 25 µM. Besides, in the data set on HeLa [4], the IC50 amounted to 27.6 µM.

Consider `C=CCOc1cccc2c1C(=O)c1c(OCC=C)cc(N)cc1C2=O` [BW-AQ-155], for which the IC50 with K562 is > 25 µM; with T98G, > 50 µM; in the data set with Cos7, > 50 µM; in the data set with KB, 12.5 µM; in the data set with EU1, > 25 µM; in the data set with MOLT4 [3] (setting [9]) it was > 25 µM. Also, the half-maximal inhibitory concentration (IC50) with HeLa [4] is ~50 µM.

Turning to `O=C1c2cccc(O)c2C(=O)c2c(O)cc(-c3ccc(O)cc3)cc21` [Compound 26g, 1,8-Dihydroxy-3-(4′-hydroxyphenyl)-anthraquinone], the figures for the IC50 in the data set on HeLa [1] (setting [7]) and in the data set on MOLT4 [2] (setting [8]) were 9.9 µM and 21 µM, respectively. In addition, in the data set on HeLa [1], the “potency in HeLa cells compared with rhein” value is listed as “moderate improvement in potency”.

On to `C=CC(=O)Nc1cc(OCC)c2c(c1)C(=O)c1cccc(OCC)c1C2=O` [BW-AQ-158], for which the IC50 in the data set on K562 is 10.7 µM; with T98G it was 21 µM; with Cos7 it was 8.42 µM; in the data set with KB, 20.3 µM; with EU1 it was 6 µM; in the data set on MOLT4 [3] (setting [9]) it was < 3.2 µM. The IC50 in the data set with HeLa [4] was 19.7 µM.

For `COc1cccc2c1C(=O)c1c(OC)cc(N)cc1C2=O` [BW-AQ-145], the IC50 was > 25 µM in the data set on K562; > 50 µM in the data set with T98G; > 50 µM with Cos7; > 50 µM with KB; > 25 µM in the data set on EU1; > 25 µM with MOLT4 [3] (setting [9]). Further, the IC50 in the data set on HeLa [4] is > 50 µM.

For `[N-]=[N+]=NC(=O)c1cc(OCc2ccccc2)c2c(c1)C(=O)c1cccc(OCc3ccccc3)c1C2=O` [BW-AQ-149], the IC50 was > 25 µM in the data set with K562; > 50 µM in the data set with T98G; > 50 µM in the data set with Cos7; > 50 µM in the data set on KB; > 25 µM with EU1; > 25 µM in the data set with MOLT4 [3] (setting [9]). The IC50 in the data set with HeLa [4] was > 50 µM.

As to `CCOc1cccc2c1C(=O)c1c(OCC)cc(NC(=O)CO)cc1C2=O` [BW-AQ-157], the IC50 with K562 was found to be 1.8 µM; with T98G, 15.4 µM; with Cos7 it was 5 µM; in the data set with KB it was 9.5 µM; with EU1, 0.358 µM; with MOLT4 [3] (setting [9]), 0.42 µM. Further, 6.35 µM corresponded to half-maximal inhibition in the data set on HeLa [4] (IC50).

In the case of `O=C1c2cccc(O)c2C(=O)c2c(O)cc(Sc3ccccc3)cc21` [Compound 24a, 1,8-Dihydroxy-3-(phenylthio)-anthraquinone], the “potency increase compared with rhein, HeLa” value with HeLa [1] was “at least 30 fold”. In addition, the figures for the IC50 in the data set with HeLa [1] (setting [7]) and in the data set on MOLT4 [2] (setting [8]) were 3.4 µM and 1.4 µM, respectively. Also, the “IC50 (μM) against HeLa” value with HeLa [1] (MTT, Tables 3 and 4) is “single digit μM level”. Further, in the data set with MOLT4 [2], the “potency increase compared with rhein, MOLT4” value is given as “at least 30 fold”. In addition, in the data set with MOLT4 [2] (MTT, Tables 3 and 4), the “IC50 (μM) against MOLT4” value was “single digit μM level”.

As for `O=C(CN1CCOCC1)Nc1cc(O)c2c(c1)C(=O)c1cccc(O)c1C2=O` [Compound 9c, 1,8-dihydroxy-3-(2′-morpholino-acetamido)-anthraquinone], the IC50 in the data set on HeLa [1] (setting [7]) came out at 13 µM; with MOLT4 [2] (setting [8]) it was 25 µM.

With `C=CCOc1cccc2c1C(=O)c1c(OCC=C)cc(NC(=O)CI)cc1C2=O` [BW-AQ-163], the IC50 is > 25 µM in the data set on K562; > 50 µM in the data set with T98G; > 50 µM in the data set with Cos7; 14.7 µM in the data set with KB; > 25 µM in the data set with EU1; > 25 µM in the data set on MOLT4 [3] (setting [9]). The IC50 in the data set with HeLa [4] is > 50 µM.

As for `O=C1c2cccc(O)c2C(=O)c2c(O)cc(-c3ccc(Sc4ccccc4)nc3)cc21` [Compound 26d, 1,8-Dihydroxy-3-(6′-phenylthio-pyridin-3′-yl)-anthraquinone], the IC50 in the data set with HeLa [1] (setting [5]) is > 100 µM; with MOLT4 [2] (setting [6]), 35 µM.

For the molecule `O=C(OCc1ccccc1)c1cc(OCc2ccccc2)c2c(c1)C(=O)c1cccc(OCc3ccccc3)c1C2=O` [BW-AQ-148], the IC50 with K562 is > 25 µM; with T98G, > 50 µM; in the data set with Cos7, > 50 µM; in the data set with KB it was > 50 µM; with EU1, > 25 µM; in the data set on MOLT4 [3] (setting [9]), > 25 µM. The IC50 with HeLa [4] amounted to 18.6 µM.

In the case of `O=C(CBr)Nc1cc(O)c2c(c1)C(=O)c1cccc(OCc3ccccc3)c1C2=O` [BW-AQ-127], the 50% inhibitory concentration (IC50) with K562 is 1.95 ± 0.58 µM; with T98G, 13.8 ± 2.5 µM; in the data set on Cos7, 1.7 ± 0.43 µM; in the data set on KB it was 5.4 ± 2.5 µM; in the data set on EU1, 0.084 ± 0.058 µM; with MOLT4 [3] (cell line not given, matches Table 8 Molt4, read-out: IC50 value), 0.028 µM. The molecule further registered a concentration for half-maximal inhibition (IC50) in the data set on HeLa [4] of 5.6 ± 0.63 µM.

Regarding `Nc1cc(OCc2ccccc2)c2c(c1)C(=O)c1cccc(OCc3ccccc3)c1C2=O` [BW-AQ-150], the IC50 in the data set with K562 is > 25 µM; in the data set with T98G it was > 50 µM; with Cos7 it was 17 µM; with KB it was > 50 µM; in the data set on EU1, > 25 µM; in the data set with MOLT4 [3] (setting [9]) it was > 25 µM. Besides, the IC50 with HeLa [4] was ~50 µM.

Take `CN1CCN(CC(=O)Nc2cc(O)c3c(c2)C(=O)c2cccc(O)c2C3=O)CC1` [Compound 9b, 1,8-Dihydroxy-3-(2′-(4″-methylpiperazin-1″-yl)-acetamido)-anthraquinone]: the IC50 amounted to 5.8 µM with HeLa [1] (setting [7]) and 3.1 µM with MOLT4 [2] (setting [8]).

For `C=CCOc1cccc2c1C(=O)c1c(OCC=C)cc(C(=O)O)cc1C2=O` [BW-AQ-153], the IC50 in the data set with K562 was > 25 µM; with T98G, > 50 µM; in the data set with Cos7 it was > 50 µM; in the data set with KB, > 50 µM; in the data set with EU1, > 25 µM; in the data set with MOLT4 [3] (setting [9]) it was > 25 µM. Further, the concentration for half-maximal inhibition (IC50) with HeLa [4] is > 50 µM.
